Experimental data reported in patent US10357514B2, “Treatment of cancer using anti-CD19 Chimeric Antigen Receptor” (The Trustees of the University of Pennsylvania, priority 2014, dated 2019).

What was measured:
RL = test: MTT assay, ibrutinib inhibition of proliferation; format: cell-based; conditions: Homo sapiens
Jeko-1 = test: MTT assay, ibrutinib inhibition of proliferation; format: cell-based; conditions: Homo sapiens
Mino = test: MTT assay, ibrutinib inhibition of proliferation; format: cell-based; conditions: Homo sapiens
RL cells = test: Ibrutinib sensitivity by reduction of bioluminescence (BLI); format: cell-based, human; conditions: 0.1 nM to 10 μM
JEKO-1 cells = test: as above; format: cell-based, human; conditions: 0.1 nM to 10 μM
MCL-RL cells = test: MCL-RL xenograft model in NSG mice; format: in vivo
Description: NOD-SCID-γ chain−/− (NSG) mice originally obtained from Jackson Laboratories were purchased from the Stem Cell and Xenograft Core of the University of Pennsylvania. All experiments were performed on protocols approved by the Institutional Animal Care and Use Committee (IACUC). Schematics of the utilized xenograft models are discussed herein. Cells (MCL cell lines or T cells) were injected in 200 ul of PBS at the indicated concentration into the tail veins of mice. Bioluminescent imaging was performed using a Xenogen IVIS-200 Spectrum camera and analyzed with LivingImage software v. 4.3.1 (Caliper LifeSciencies). Animals were euthanized at the end of the experiment or when they met pre-specified endpoints according to the IACUC protocols.
Schematics such as those shown in FIGS. 20, 55, and 5A were used in this example. […] 1×10^6 cells from RL (MCL-3), JEKO-1 (MCL-4), and NALM6 (MCL-5) cell lines are injected in NSG mice (20 mice for each experiment). […] At Day 7, Day 14, Day 21, and Day 28, the bioluminescence is imaged to monitor tumor size. […] Survival of the mice is also monitored. […] 2×10^6 MCL-RL cells are injected into NSG mice. […] At days 14, 21, 28, and 35 (after injection of MCL-RL cells), the bioluminescence is imaged to monitor tumor size.
Mean bioluminescence, representing tumor growth, was assessed at various timepoints.

PBMCs = test: CAR19 lentiviral transduction of ibrutinib-treated normal donor PBMCs; format: cell-based, human; conditions: PBMCs incubated with 5 μM ibrutinib for 30 minutes
Description: Normal donor PBMCs were obtained using apheresis as described herein, for example in Example 6. […] The cells were then transduced with lentiviral constructs containing CAR19 to generate CART19 T cells using the methods described herein, for example, in Example 4. The number of CART19 T cells generated from ibrutinib-treated PBMCs FACs analysis was performed to determine the number of CART19 T cells generated from ibrutinib-treated PBMCs compared to untreated PBMCs.

Nalm/6 cells = test: Nalm/6 tumor model in NSG mice; format: in vivo
Description: CART19 function was assessed in an in vivo mouse model. Nalm/6 cells (human acute lymphoblastic leukemia cell line) were implanted into NSG mice, and the mice were monitored daily for at least 50 days. […] CART19 was administered on day 7 or day 9, or mice were left untreated (control). […] For example, the cells were stained with anti-human CD19 antibody to determine the percent of human CD19+(Nalm/6) cells in the blood of the tumor-bearing NSG mice.

CART19 T cells = conditions: 0.1, 0.5, 1 and 5 μM ibrutinib
MCL = conditions: cited from earlier work
[1] = mice; cited from earlier work
[2] = test system: luciferase-expressing mantle cell line (RL luc); test: Lymphoma xenograft model, tumor burden by mean bioluminescence; format: in vivo, NSG mice; conditions: 200 ng/mouse i.p. three times weekly from Day 85, mice with suboptimal response to CART19
Text: Tumor size was monitored by measuring the mean bioluminescence of the engrafted tumors over more than 80 days. […] When comparing the tumor burden of mice that received IL-7 treatment to control, before and after IL-7 treatment, tumor reduction in tumor burden was only seen in the mice that had received IL-7 treatment (FIG. 49C).

Molecule: C=CC(=O)N1CCC[C@@H](n2nc(-c3ccc(Oc4ccccc4)cc3)c3c(N)ncnc32)C1 [ibrutinib, 1-[(3R)-3-[4-Amino-3-(4-phenoxyphenyl)-1H-pyrazolo[3,4-d]pyrimidin-1-yl]piperidin-1-yl]prop-2-en-1-one]
- IC50 (RL): 10 nM
- IC50 (Jeko-1): ≤ 10 µM
- IC50 (Mino): ≤ 10 µM
- sensitivity to ibrutinib (reduction of bioluminescence) (RL cells): sensitive
- sensitivity to ibrutinib (reduction of bioluminescence) (JEKO-1 cells): resistant
- median overall survival (MCL-RL cells; 25 mg/kg/day): 81 days
- median overall survival (MCL-RL cells; 125 mg/kg/day): 100 days
- tumor growth (mean bioluminescence) (MCL-RL cells; ibrutinib alone, 25 and 250 mg/kg/day): dose-related sensitivity
- circulating and nodal/organ MCL cells (MCL-RL cells; one week after beginning ibrutinib alone): more circulating MCL cells and fewer nodal/organ MCL cells
- tumor burden (bioluminescence) (MCL-RL cells; treatment from Day 7, CART19 2×10^6 cells, ibrutinib 125 mg/kg/day): modestly delayed tumor growth at early time points
- transduced PBMCs expressing CAR19 (PBMCs): 15%
- Nalm/6 cells circulating in peripheral blood (Nalm/6 cells; daily oral gavage from day 7, CART19 on day 7 or 9): does not impair CART19 function in clearing Nalm/6 cells
- survival after injection of Nalm/6 cells (Nalm/6 cells; ibrutinib without CART19 T cells): ≤ 30 days
- CD3/CD28-stimulated CART19 cell proliferation (CART19 T cells): did not affect CART19 cell proliferation
- patients who do not respond (MCL): about 30%

Molecule: CO[C@H]1C[C@@H]2CC[C@@H](C)[C@@](O)(O2)C(=O)C(=O)N2CCCC[C@H]2C(=O)O[C@H]([C@H](C)C[C@@H]2CC[C@@H](O)[C@H](OC)C2)CC(=O)[C@H](C)/C=C(\C)[C@@H](O)[C@@H](OC)C(=O)[C@H](C)C[C@H](C)/C=C/C=C/C=C/1C [rapamycin]
- lifespan [1]: extended lifespan

B1: IL-7: exogenous recombinant human IL-7 (protein, UniProt P13232 26-177, looked up)
Interleukin-7: DCDIEGKDGKQYESVLMVSIDQLLDSMKEIGSNCLNNEFNFFKRHICDANKEGMFLFRAARKLRQFLKMNSTGDFDLHLLKVSEGTTILLNCTGQVKGRKPAALGEAQPTKSLEENKSLKEQKKLNDLCFLKRLLQEIKTCWNKILMGTKEH
- reduction in tumor burden [2]: 1-3 log
